Source: US20250277186A1, “COMPOUND MICROBIAL INOCULUM WITH BACTERIOSTATIC EFFECT AND USE THEREOF IN PREPARATION OF YOGURT” (priority 2023, published 2025)

Experiments:
[1] = test system: Lacticaseibacillus rhamnosus FMBL L23004 CNN; experiment: Antibiotic sensitivity, drug-sensitive paper; as to Antibiotic sensitivity of Lacticaseibacillus rhamnosus FMBL L23004 CNN: key: R: resistant; I: intermediately sensitive; S: sensitive; type: cell-based; conditions: for Antibiotic sensitivity of Lacticaseibacillus rhamnosus FMBL L23004 CNN: drug-sensitive paper (content per Table 3), MRS solid medium, anaerobic 37° C. 24 h; for Resistant / sensitive, Lacticaseibacillus rhamnosus FMBL L23004 CNN: text statement for the two strains
Protocol: (§1) After two strains were cultured anaerobically at 37° C. at a 2% inoculation rate for 24 h, 100 μL (about 1×10^7 cfu/mL) of a bacteria solution of each strain was coated on the surface of an MRS solid medium, and then drug-sensitive paper (purchased from Oxoid Company, UK) was lightly pressed tightly in the middle of each of the mediums; and after anaerobic culture was carried out at 37° C. for 24 h, the bacteriostatic condition of the drug-sensitive paper was observed, and the diameter of the inhibition zone was measured.

[2] = test system: Lactiplantibacillus plantarum FMBL L23036 CNN; experiment: Antibiotic sensitivity, drug-sensitive paper; as to Antibiotic sensitivity of Lactiplantibacillus plantarum FMBL L23036 CNN: key: R: resistant; I: intermediately sensitive; S: sensitive; type: cell-based; conditions: for Antibiotic sensitivity of Lactiplantibacillus plantarum FMBL L23036 CNN: drug-sensitive paper (content per Table 3), MRS solid medium, anaerobic 37° C. 24 h; for Resistant / sensitive, Lactiplantibacillus plantarum FMBL L23036 CNN: text statement for the two strains
Protocol: as §1

Molecule	Antibiotic sensitivity of Lacticaseibacillus rhamnosus FMBL L23004 CNN [1]	Resistant / sensitive, Lacticaseibacillus rhamnosus FMBL L23004 CNN [1]	Antibiotic sensitivity of Lactiplantibacillus plantarum FMBL L23036 CNN [2]	Resistant / sensitive, Lactiplantibacillus plantarum FMBL L23036 CNN [2]
NCC[C@H](O)C(=O)N[C@@H]1C[C@H](N)[C@@H](O[C@H]2O[C@H](CN)[C@@H](O)[C@H](O)[C@H]2O)[C@H](O)[C@H]1O[C@H]1O[C@H](CO)[C@@H](O)[C@H](N)[C@H]1O [Amikacin]	R	resistant	R	resistant
CC1(C)S[C@@H]2[C@H](NC(=O)[C@H](N)c3ccc(O)cc3)C(=O)N2[C@H]1C(=O)O [Amoxicillin]	S	sensitive	S	sensitive
CC1(C)S[C@@H]2[C@H](NC(=O)[C@H](N)c3ccccc3)C(=O)N2[C@H]1C(=O)O [Ampicillin]	S	sensitive	S	sensitive
O=C(Cc1cccs1)N[C@@H]1C(=O)N2C(C(=O)[O-])=C(C[n+]3ccccc3)CS[C@H]12 [Cephaloridine]	S	sensitive	S	sensitive
O=C(N[C@H](CO)[C@H](O)c1ccc([N+](=O)[O-])cc1)C(Cl)Cl [Chloramphenicol]	S	sensitive	S	sensitive
O=C(O)c1cn(C2CC2)c2cc(N3CCNCC3)c(F)cc2c1=O [Ciprofloxacin]	R	resistant	R	resistant
CCC[C@@H]1C[C@@H](C(=O)N[C@@H]([C@H]2O[C@H](SC)[C@H](O)[C@@H](O)[C@H]2O)[C@H](C)Cl)N(C)C1 [Clindamycin]	S		S	
CC[C@H]1OC(=O)[C@H](C)[C@@H](O[C@H]2C[C@@](C)(OC)[C@@H](O)[C@H](C)O2)[C@H](C)[C@@H](O[C@@H]2O[C@H](C)C[C@H](N(C)C)[C@H]2O)[C@](C)(O)C[C@@H](C)C(=O)[C@H](C)[C@@H](O)[C@]1(C)O [Erythromycin]	S		I	
NC[C@H]1O[C@H](O[C@H]2[C@H](O)[C@@H](O[C@H]3O[C@H](CO)[C@@H](O)[C@H](N)[C@H]3O)[C@H](N)C[C@@H]2N)[C@H](O)[C@@H](O)[C@@H]1O [Kanamycin]	R		R	
CN(C)c1ccc(O)c2c1C[C@H]1C[C@H]3[C@H](N(C)C)C(O)=C(C(N)=O)C(=O)[C@@]3(O)C(O)=C1C2=O [Minocycline]	S		S	
CCn1cc(C(=O)O)c(=O)c2cc(F)c(N3CCNCC3)cc21 [Norfloxacin]	R	resistant	R	resistant
Cc1onc(-c2ccccc2)c1C(=O)N[C@@H]1C(=O)N2[C@@H]1SC(C)(C)[C@@H]2C(=O)O [Oxacillin]	I		R	
CO[C@H]1/C=C/O[C@@]2(C)Oc3c(C)c(O)c4c(O)c(c(/C=N/N5CCN(C)CC5)c(O)c4c3C2=O)NC(=O)/C(C)=C\C=C\[C@H](C)[C@H](O)[C@@H](C)[C@@H](O)[C@@H](C)[C@H](OC(C)=O)[C@@H]1C [Rifampicin]	S		S	
[H]/N=C(/N)N[C@H]1[C@H](O)[C@@H](O)[C@H](O[C@@H]2O[C@@H](C)[C@](O)(C=O)[C@H]2O[C@@H]2O[C@@H](CO)[C@H](O)[C@@H](O)[C@@H]2NC)[C@@H](N/C(N)=N\[H])[C@@H]1O [Streptomycin]	I		R	
CN(C)[C@@H]1C(O)=C(C(N)=O)C(=O)[C@@]2(O)C(O)=C3C(=O)c4c(O)cccc4[C@@](C)(O)[C@H]3C[C@@H]12 [Tetracycline]	S		S	
CN[C@H](CC(C)C)C(=O)N[C@H]1C(=O)N[C@@H](CC(N)=O)C(=O)N[C@H]2C(=O)N[C@H]3C(=O)N[C@H](C(=O)N[C@H](C(=O)O)c4cc(O)cc(O)c4-c4cc3ccc4O)[C@H](O)c3ccc(c(Cl)c3)Oc3cc2cc(c3O[C@@H]2O[C@H](CO)[C@@H](O)[C@H](O)[C@H]2O[C@H]2C[C@](C)(N)[C@H](O)[C@H](C)O2)Oc2ccc(cc2Cl)[C@H]1O [Vancomycin]	R	resistant	R	resistant
Gentamicin	R	resistant	R	resistant
Penicillin	S	sensitive	S	sensitive
Polymyxin	R	resistant	R	resistant
Teicoplanin	R	resistant	R	resistant
